Measured values taken from patent US4459293A, “Method of modulating the complement system by administering bis-[β-D-glucopyranosyl-1-thio (or sulfinyl or sulfonyl)]-aryline sulfate derivatives and the cation salts thereof” (American Cyanamid Company, priority 1983, dated 1984).
Structures can show the parent of a compound that is named as a salt.

Key:
activated human C1 = target: T1, activated human C1 (Homo sapiens, UniProt P09871); assay: Test Code 026 (C1 inhibitor): protection of fluid phase human C2 from activated human C1 in the presence of C4, serial dilution assay; format: biochemical; conditions: activity in wells, twofold serial dilutions; higher well number indicates higher activity
T1 construct: fluid-phase C2 destruction in presence of C4
T1 sequence (P09871 16-688): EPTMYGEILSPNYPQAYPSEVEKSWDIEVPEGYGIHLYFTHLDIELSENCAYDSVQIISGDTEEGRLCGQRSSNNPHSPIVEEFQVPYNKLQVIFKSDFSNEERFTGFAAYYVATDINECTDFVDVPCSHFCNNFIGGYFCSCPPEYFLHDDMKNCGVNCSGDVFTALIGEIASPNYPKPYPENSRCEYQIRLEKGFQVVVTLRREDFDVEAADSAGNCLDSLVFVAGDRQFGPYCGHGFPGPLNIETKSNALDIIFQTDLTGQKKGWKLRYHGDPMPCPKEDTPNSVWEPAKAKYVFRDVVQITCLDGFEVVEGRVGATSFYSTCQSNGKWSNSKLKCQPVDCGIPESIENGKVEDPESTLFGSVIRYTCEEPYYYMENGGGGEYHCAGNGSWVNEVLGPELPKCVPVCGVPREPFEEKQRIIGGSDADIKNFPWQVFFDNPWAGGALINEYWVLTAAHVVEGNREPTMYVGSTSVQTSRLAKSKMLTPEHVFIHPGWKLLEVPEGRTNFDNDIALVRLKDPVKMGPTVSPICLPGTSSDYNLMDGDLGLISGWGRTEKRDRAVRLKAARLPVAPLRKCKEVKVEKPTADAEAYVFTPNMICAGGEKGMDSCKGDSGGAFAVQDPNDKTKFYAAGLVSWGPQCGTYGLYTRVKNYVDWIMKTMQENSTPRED
T1 sequence (P00736 18-705 partner): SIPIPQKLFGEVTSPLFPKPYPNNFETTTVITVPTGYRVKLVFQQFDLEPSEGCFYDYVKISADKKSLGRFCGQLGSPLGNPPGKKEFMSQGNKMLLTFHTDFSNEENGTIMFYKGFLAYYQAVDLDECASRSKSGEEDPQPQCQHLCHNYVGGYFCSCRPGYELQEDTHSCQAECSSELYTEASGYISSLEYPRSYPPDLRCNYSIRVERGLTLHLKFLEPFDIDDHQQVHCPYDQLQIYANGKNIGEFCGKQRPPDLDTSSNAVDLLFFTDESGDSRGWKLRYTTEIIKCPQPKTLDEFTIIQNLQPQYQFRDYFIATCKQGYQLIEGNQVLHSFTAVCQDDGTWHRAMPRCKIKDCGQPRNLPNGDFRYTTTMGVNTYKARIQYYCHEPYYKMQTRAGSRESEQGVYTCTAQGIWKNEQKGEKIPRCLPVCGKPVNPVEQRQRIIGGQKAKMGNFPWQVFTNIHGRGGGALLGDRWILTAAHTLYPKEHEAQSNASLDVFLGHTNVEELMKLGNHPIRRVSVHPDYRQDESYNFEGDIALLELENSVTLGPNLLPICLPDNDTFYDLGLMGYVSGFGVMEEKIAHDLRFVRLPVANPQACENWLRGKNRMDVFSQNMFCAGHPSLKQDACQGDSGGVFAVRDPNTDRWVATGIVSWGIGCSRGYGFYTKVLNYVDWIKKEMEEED
T1 sequence (P02745 23-245 partner): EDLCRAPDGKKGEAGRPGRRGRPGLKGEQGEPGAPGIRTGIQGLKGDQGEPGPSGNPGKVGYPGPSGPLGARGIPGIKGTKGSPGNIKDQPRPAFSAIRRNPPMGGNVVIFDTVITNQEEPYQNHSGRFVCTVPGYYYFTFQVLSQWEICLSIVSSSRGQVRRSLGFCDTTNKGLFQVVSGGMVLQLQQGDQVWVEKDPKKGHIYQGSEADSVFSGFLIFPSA
T1 sequence (P02746 28-253 partner): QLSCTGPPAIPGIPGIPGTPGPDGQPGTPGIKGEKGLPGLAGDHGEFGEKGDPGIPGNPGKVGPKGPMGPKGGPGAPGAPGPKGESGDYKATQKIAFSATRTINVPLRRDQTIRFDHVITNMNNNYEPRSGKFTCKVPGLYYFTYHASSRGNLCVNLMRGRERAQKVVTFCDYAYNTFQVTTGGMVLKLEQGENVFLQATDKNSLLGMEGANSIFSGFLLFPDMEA
T1 sequence (P02747 29-245 partner): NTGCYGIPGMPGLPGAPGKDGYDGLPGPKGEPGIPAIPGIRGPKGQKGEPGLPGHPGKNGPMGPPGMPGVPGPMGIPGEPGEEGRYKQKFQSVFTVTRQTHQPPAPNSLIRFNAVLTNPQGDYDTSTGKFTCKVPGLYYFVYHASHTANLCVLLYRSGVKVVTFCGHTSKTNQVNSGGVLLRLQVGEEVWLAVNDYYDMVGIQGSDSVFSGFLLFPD
Description: (§1) An active inhibitor protects C2 from C1 and C4; (ii) Test Code 035 (C3-C9 inhibitor)--This test determines the ability of the late components of human complement (C3-C9) to lyse EAC 142 in the presence of appropriate dilutions of the test compound. An active inhibitor protects EAC 142 from lysis by human C3-C9; and (iii) Cap 50 Test--Here, appropriate amounts of the test compound are added to a pool of guinea pig serum in vitro, after which the undiluted serum capillary tube assay of U.S. Pat. No. 3,876,376 is run. The concentration of compound inhibiting 50% is reported.
(§2) **Activity in wells, a serial dilution assay; higher well number indicate
(§3) higher activitiy. The serial dilutions are twofold.

[1] = test system: late components of human complement (C3-C9); assay: Test Code 035 (C3-C9 inhibitor): protection of EAC 142 from lysis by late components of human complement; format: biochemical; conditions: activity in wells, twofold serial dilutions; higher well number indicates higher activity
Description: as §1, §2, §3

| SMILES | Cl 026 Wells (activated human C1) [Wells] | C-Late 035 Wells [1] [Wells] |
| --- | --- | --- |
| CC(=O)N[C@@H]1[C@@H](OS(=O)(=O)O)[C@H](OS(=O)(=O)O)[C@@H](COS(=O)(=O)O)O[C@H]1Sc1cccc(S[C@@H]2O[C@H](COS(=O)(=O)O)[C@@H](OS(=O)(=O)O)[C@H](OS(=O)(=O)O)[C@H]2NC(C)=O)c1 [1,3-Bis-[β-D-(2-acetylamino)-glucopyranosyl-1-thio]-phenylene, hexakis(H-sulfate), hexasodium salt] | 5 | 1 |
| O=C(O)[C@H]1O[C@@H](Sc2cccc(S[C@@H]3O[C@H](C(=O)O)[C@@H](OS(=O)(=O)O)[C@H](OS(=O)(=O)O)[C@H]3OS(=O)(=O)O)c2)[C@H](OS(=O)(=O)O)[C@@H](OS(=O)(=O)O)[C@@H]1OS(=O)(=O)O [1,3-Bis[β-D-glucopyranosiduronic acid-1-thio]-phenylene, hexakis(H-sulfate), octasodium salt] | 5 | – |
| O=S(=O)(O)OC[C@H]1O[C@@H](Sc2ccc(Oc3ccc(S[C@@H]4O[C@H](COS(=O)(=O)O)[C@@H](OS(=O)(=O)O)[C@H](OS(=O)(=O)O)[C@H]4OS(=O)(=O)O)cc3)cc2)[C@H](OS(=O)(=O)O)[C@@H](OS(=O)(=O)O)[C@@H]1OS(=O)(=O)O [Oxydi-p-phenylene bis-[1-thio-β-D-glucopyranoside], octakis(H-sulfate), octasodium salt] | 4 | – |
